Reference: patent US11730743B2, “Protection of cells from degeneration and treatment of geographic atrophy” (University of Kentucky Research Foundation, priority 2012, dated 2023)

Experiments:
[1] = tested on: Dicer1f/f mouse RPE cells; assay: miRNA quantification in Dicer1f/f mouse RPE cells treated with Ad-Cre; format: cell-based; details: versus control peptide
From the text: miRNA quantification. Total RNA containing miRNAs was polyadenylated and reverse transcribed using universal primer using the All-In-One miRNA q-RT-PCR Detection Kit (GeneCopoeia) according to the manufacturer's specifications using a universal reverse primer in combination with forward primers for: mouse miR-184; mouse miR-221/222; mouse miR-320a; and mouse miR-484. miRNA levels were normalized to levels of U6 snRNA using the 2^−ΔΔct method. Detection was achieved by SYBR green qPCR with the following conditions: 95° C. for 10 min followed by 40 cycles of 95° C. for 10 s, 60° C. for 20 s and 72° C. for 20 s. Amplicon specificity was assessed by melt curve analysis and unique bands by agarose gel electrophoresis.
(§1) Adenoviral infection. Cells were plated at density of 15×10^3/cm^2 and after 16 h, at approximately 50% confluence, were infected with AdCre or AdNull (Vector Laboratories) with a multiplicity of infection of 1,000.

Dicer1f/f mice = assay: RPE degeneration induced by subretinal AAV1-BEST1-Cre (DICER1 loss); format: in vivo; details: inhibitor intravitreous
Method: Immunolabeling. Human eyes fixed in 2-4% paraformaldehyde were prepared as eyecups, cryoprotected in 30% sucrose, embedded in optimal cutting temperature compound (Tissue-Tek OCT; Sakura Finetek), and cryosectioned into 10 μm sections. Depigmentation was achieved using 0.25% potassium permanganate and 0.1% oxalic acid. Immunohistochemical staining was performed with the rabbit antibody against NLRP3 (1:100, Sigma Aldrich) or rabbit antibody against Caspase-1 (prediluted, AbCam). Isotype IgG was substituted for the primary antibody to assess the specificity of the staining. Bound antibody was detected with biotin-conjugated secondary antibodies, followed by incubation with ABC reagent and visualized by Vector Blue (Vector Laboratories). Levamisole (Vector Laboratories) was used to block endogenous alkaline phosphatase activity. Slides were washed in PBS, counterstained with neutral red (Fisher Scientific), rinsed with deionized water, air dried, and then mounted in Vectamount (Vector Laboratories). Fluorescent labeling of human tissue was performed with the rabbit antibody against PYCARD (1:50, Clone N-15, Santa Cruz Biotechnology). Immunolabeling was visualized by fluorescently conjugated anti-rabbit secondary antibody (Invitrogen). Tissue autofluorescence was quenched by incubating the sections in 0.3% Sudan black (Fisher Scientific). […]

[2] = tested on: Dicer1f/f mouse RPE cells; assay: Cell viability of Dicer1f/f mouse RPE cells treated with Ad-Cre; format: cell-based
Method: as §1

With “MyD88 inhibitory peptide: peptide inhibitor of MyD88 homodimerization IMG-2005 (IMGENEX)” the “miRNA abundance in Dicer1 depleted cells” value [1] was “No significant difference”, the “AAV1-BEST1-Cre-induced RPE degeneration” value (Dicer1f/f mice) was “blocked” and the “cell death in Dicer1f/f mouse RPE cells treated with adenoviral vector coding for Cre recombinase” value [2] was “prevented cell death”.
